Reference: ChEMBL document CHEMBL1201862, “PubChem BioAssay data set” (2004)
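Cultured in 96-well plates, cells were exposed to test compound for 48 hours across five concentrations. GI50 is the concentration that inhibits growth by half.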 Active and inactive are the calls of the source. Cut-off read from the data, not from the text of the source: active = GI50 up to about 1.1 µM and inactive = higher.

Legend:
Test in all cases: NCI anticancer screen, dose series, 48 h
A549 = system: A549
ACHN = system: ACHN
CAKI-1 = system: CAKI-1
HCT-15 = system: HCT-15
HOP-62 = system: HOP-62
IGROV-1 = system: IGROV-1
MCF7 = system: MCF7
MDA-MB-231 = system: MDA-MB-231
MOLT-4 = system: MOLT-4
Malme-3M = system: Malme-3M
NCI-H226 = system: NCI-H226
OVCAR-5 = system: OVCAR-5
RPMI-8226 = system: RPMI-8226
SF-539 = system: SF-539
SK-MEL-5 = system: SK-MEL-5
SNB-75 = system: SNB-75
SR = system: SR
TK-10 = system: TK-10
U-251 = system: U-251
UACC-62 = system: UACC-62

| Compound | GI50 (A549) | GI50 (ACHN) | GI50 (CAKI-1) | GI50 (HCT-15) [µM] | GI50 (HOP-62) | GI50 (IGROV-1) | GI50 (MCF7) | GI50 (MDA-MB-231) | GI50 (MOLT-4) | GI50 (Malme-3M) | GI50 (NCI-H226) | GI50 (OVCAR-5) | GI50 (RPMI-8226) | GI50 (SF-539) | GI50 (SK-MEL-5) | GI50 (SNB-75) | GI50 (SR) | GI50 (TK-10) | GI50 (U-251) | GI50 (UACC-62) |
| --- | --- | --- | --- | --- | --- | --- | --- | --- | --- | --- | --- | --- | --- | --- | --- | --- | --- | --- | --- | --- |
| Cc1cc(S(=O)(=O)Nc2n[nH]c(-c3ccc(Cl)cc3)n2)c(SSc2cc(Cl)c(C)cc2S(=O)(=O)Nc2n[nH]c(-c3ccc(Cl)cc3)n2)cc1Cl | 41.5 µM (inactive) | 32.1 µM (inactive) | 34.2 µM (inactive) | 25.1 | 54.5 µM (inactive) | 22 µM (inactive) | 24.6 µM (inactive) | 31.3 µM (inactive) | 25.8 µM (inactive) | 46.3 µM (inactive) | 22.5 µM (inactive) | 22 µM (inactive) | 37.2 µM (inactive) | 40.8 µM (inactive) | 33.2 µM (inactive) | 27.9 µM (inactive) | 25.5 µM (inactive) | 58.3 µM (inactive) | 25.2 µM (inactive) | 21.4 µM (inactive) |
| OC(C1=C/C(=C\c2ccncc2)c2ccccc21)c1ccncc1 (stereo not given) | 13.3 µM (inactive) | 14.8 µM (inactive) | 7.83 µM (inactive) | 16.5 | 10.2 µM (inactive) | 14.4 µM (inactive) | 9.86 µM (inactive) | 6.98 µM (inactive) | 5.71 µM (inactive) | 15.1 µM (inactive) | 13.6 µM (inactive) | 15.8 µM (inactive) | 2.37 µM (inactive) | 13.9 µM (inactive) | 3.21 µM (inactive) | 5.85 µM (inactive) | 5.4 µM (inactive) | 13.6 µM (inactive) | 14.7 µM (inactive) | 9.16 µM (inactive) |
| C=CCO/N=C/c1cc(/N=C(/S)c2ccoc2C)ccc1Cl | 21 µM (inactive) | 5.71 µM (inactive) | 9.84 µM (inactive) | 8.26 | 14.4 µM (inactive) | 13.2 µM (inactive) | 9.66 µM (inactive) | 13.3 µM (inactive) | 5.71 µM (inactive) | 15 µM (inactive) | 15.9 µM (inactive) | 16.6 µM (inactive) | 3.27 µM (inactive) | 25.4 µM (inactive) | 11.4 µM (inactive) | 15.7 µM (inactive) | 6.22 µM (inactive) | 16.6 µM (inactive) | 13.9 µM (inactive) | 14.4 µM (inactive) |
| O=C(N/N=C\c1cccc2c([N+](=O)[O-])cccc12)Nc1ccccc1 | 10.3 µM (inactive) | 14.2 µM (inactive) | 12.5 µM (inactive) | 11.2 | 16.2 µM (inactive) | 19 µM (inactive) | 8.83 µM (inactive) | 17.8 µM (inactive) | 13.4 µM (inactive) | 14.1 µM (inactive) | 13.6 µM (inactive) | 15.1 µM (inactive) | 14.7 µM (inactive) | 11.5 µM (inactive) | 14.1 µM (inactive) | 22.3 µM (inactive) | 11.3 µM (inactive) | 11.7 µM (inactive) | 7.08 µM (inactive) | 10.4 µM (inactive) |
| COC(=O)[C@@](C)(COC(=O)C(C)(C)C)NC(=O)OC(C)(C)C | > 100 µM (inactive) | > 100 µM (inactive) | > 100 µM (inactive) | > 100 | > 100 µM (inactive) | > 100 µM (inactive) | > 100 µM (inactive) | > 100 µM (inactive) | > 100 µM (inactive) | > 100 µM (inactive) | > 100 µM (inactive) | > 100 µM (inactive) | > 100 µM (inactive) | > 100 µM (inactive) | > 100 µM (inactive) | > 100 µM (inactive) | > 100 µM (inactive) | > 100 µM (inactive) | > 100 µM (inactive) | > 100 µM (inactive) |
| Cc1cc(O)ccc1C1(c2ccc(F)cc2)OC(=O)c2ccccc21 (stereo not given) | 5.24 µM (inactive) | 4.17 µM (inactive) | 3.78 µM (inactive) | 3.18 | 5.65 µM (inactive) | 2.21 µM (inactive) | 1.34 µM (inactive) | 7.01 µM (inactive) | 15.5 µM (inactive) | 12.7 µM (inactive) | 2.38 µM (inactive) | 6.64 µM (inactive) | 21.7 µM (inactive) | 2.99 µM (inactive) | 11.3 µM (inactive) | 1.93 µM (inactive) | 13.4 µM (inactive) | 4.01 µM (inactive) | 15.5 µM (inactive) | 3.39 µM (inactive) |
| CC[C@H](C)[C@H]1NC(=O)[C@@H](NC(=O)[C@@H](CC(C)C)N(C)C(=O)C2CCCN2C(=O)[C@H](C)O)[C@@H](C)OC(=O)[C@@H]2Cc3ccccc3CN2C(=O)[C@@H]2CCCN2C(=O)[C@H](CC(C)C)NC(=O)[C@@H](C)C(=O)[C@H](C(C)C)OC(=O)C[C@@H]1O (stereo not given in full) | 0.434 µM (active) | 1.55 µM (inactive) | 4.92 µM (inactive) | > 47.2 | 0.385 µM (active) | 0.476 µM (active) | 0.0596 µM (active) | 1.04 µM (active) | 0.17 µM (active) | 0.34 µM (active) | 1.6 µM (inactive) | 0.822 µM (active) | 0.399 µM (active) | 0.267 µM (active) | 0.164 µM (active) | 0.121 µM (active) | 0.0811 µM (active) | 2.62 µM (inactive) | 0.0586 µM (active) | 0.106 µM (active) |
| CC1(C)NC(C(=O)c2ccccc2)=[N+]([O-])C1(O)c1ccccc1 (stereo not given) | > 100 µM (inactive) | > 100 µM (inactive) | > 100 µM (inactive) | 81.3 | > 100 µM (inactive) | > 100 µM (inactive) | > 100 µM (inactive) | > 100 µM (inactive) | > 100 µM (inactive) | > 100 µM (inactive) | > 100 µM (inactive) | > 100 µM (inactive) | > 100 µM (inactive) | > 100 µM (inactive) | 93.3 µM (inactive) | > 100 µM (inactive) | > 100 µM (inactive) | > 100 µM (inactive) | > 100 µM (inactive) | > 100 µM (inactive) |
| CCN(CC)CCn1c2cc3c(cc2c(=O)c2cccnc21)OCO3 | 5.11 µM (inactive) | 3.52 µM (inactive) | 9.14 µM (inactive) | 3.72 | 3.61 µM (inactive) | 4.88 µM (inactive) | 3.89 µM (inactive) | 4.44 µM (inactive) | 3.68 µM (inactive) | 4.84 µM (inactive) | 5.01 µM (inactive) | 4.44 µM (inactive) | 3.93 µM (inactive) | 4.92 µM (inactive) | 2.77 µM (inactive) | 3.83 µM (inactive) | 4.34 µM (inactive) | 6.01 µM (inactive) | 6.65 µM (inactive) | 8.75 µM (inactive) |
